Reference: patent publication US20030149084A1, “Cytostatic agents” (priority 1998, published 2003)

Test system: human histiocytic lymphoma cell line (U937)
Assay: U937 cell proliferation assay (methyl-3H thymidine incorporation)
Type: cell-based
Conditions: Homo sapiens, U-937, U937 cells; test compound 6 μM; 72 hours in culture, 3 hours pulse; control DMSO 0.08%; n=6
Protocol: The compounds of examples 1 to 10 were tested the following cell proliferation assay, to determine their respective capacities to inhibit proliferation.
A human histiocytic lymphoma cell line (U937) was seeded into 30 mm^2 tissue culture wells, in the appropriate culture medium supplemented with 10% fetal calf serum at a density of 250 cells/mm^2. Six hours later the test compounds were added in the same culture medium to the cells to give a final concentration of 6 μM. Control wells contained cells supplemented with the same culture medium containing the equivalent amount of drug vehicle, which in this case was DMSO at a final concentration of 0.08%. After 72 hours in culture the cells were pulsed for 3 hours with methyl-^3H Thymidine (20 μCi/ml) and then harvested onto filter mats and DNA associated radioactivity counted. Results are expressed as percentage of control methyl-^3H Thydimine incorporation (n=6±1 stdv).

With `CC(C)C[C@@H](C(=O)N[C@@H](Cc1ccccc1)C(=O)OC1CCCC1)C(C)N(O)C=O` (single isomer, unassigned) [Example 2, diastereomer A] as the molecule, how does the activity at 6 µM read?
Its activity at 6 µM is 21%.

Which activity at 6 µM does the source give for `CCCC[C@H](CN(O)C=O)C(=O)N[C@H](C(=O)OC1CCCC1)C(C)(C)C` [Example 3, 2S-{2R-[(Formyl-hydroxy-amino)-methyl]-hexanoylamino}-3,3-dimethyl Butyric Acid Cyclopentyl Ester] here?
The activity at 6 µM was 80%.

For `CCCC[C@H](CN(O)C=O)C(=O)N[C@@H](Cc1ccccc1)C(=O)OC1CCCC1` [Example 4, S-{2R-[(Formyl-hydroxy-amino)-methyl]-hexanoylamino}-3-phenyl-propionic Acid Cyclopentyl Ester], which activity at 6 µM is on record?
Its activity at 6 µM is 0%.

For `CCCC[C@H](CN(O)C=O)C(=O)N[C@H](C(=O)OC)C(C)(C)C` [Example 5, 2S-{2R-[(Formyl-hydroxy-amino)-methyl]-hexanoylamino}-3,3-dimethyl Butyric Acid Methyl Ester], which activity at 6 µM is on record?
The activity at 6 µM was 86%.

With `CCCC[C@H](CN(O)C=O)C(=O)N[C@@H](Cc1ccccc1)C(=O)OC` [Example 7] as the molecule, how does the activity at 6 µM read?
The activity at 6 µM was 0%.

Which activity at 6 µM does the source give for `CCCC[C@H](CN(O)C=O)C(=O)N[C@@H](Cc1ccccc1)C(=O)OCC` [Example 8, 2S-{2R-[(Formyl-hydroxy-amino)-methyl]-hexanoylamino)-3-phenyl-propionic Acid Ethyl Ester] here?
The activity at 6 µM was 0%.

With `CCCC[C@H](CN(O)C=O)C(=O)N[C@H](C(=O)OC(C)C)C(C)(C)C` [Example 9, 2S-{2R-[(Formyl-hydroxy-amino)-methyl]-hexanoylamino}-3,3-dimethyl Butyric Acid Iso-Propyl Ester] as the molecule, how does the activity at 6 µM read?
Its activity at 6 µM is 81%.

For `CCCC[C@H](CN(O)C=O)C(=O)N[C@H](C(=O)OCC)c1ccccc1` [Example 10, 2S-{2R-[(Formyl-hydroxy-amino)-methyl]-hexanoylamino}-2-phenyl Acetic Acid Ethyl Ester], which activity at 6 µM is on record?
The activity at 6 µM was 7%.

For `CCCC[C@H](CN(O)C=O)C(=O)N[C@H](C(=O)OC(C)C)c1ccccc1` [Example 11, S-{2R-[(Formyl-hydroxy-amino)-methyl]-hexanoylamino}-2-phenyl Acetic Acid Iso-Propyl Ester], which activity at 6 µM is on record?
Its activity at 6 µM is 36%.

Which activity at 6 µM does the source give for `CCCC[C@H](CN(O)C=O)C(=O)N[C@H](C(=O)OCC)C(C)(C)C` [Example 12, 2S-{2R-[(Formyl-hydroxy-amino)-methyl]-hexanoylamino}-3,3-dimethyl Butyric Acid Ethyl Ester] here?
The activity at 6 µM was 77%.

For `CCCC[C@H](CN(O)C=O)C(=O)N[C@H](C(=O)OC1CCC1)C(C)(C)C` [Example 14, 2S-{2R-[(Formyl-hydroxy-amino)-methyl]-hexanoylamino}-3,3-dimethyl Butyric Acid Cyclobutyl Ester], which activity at 6 µM is on record?
The activity at 6 µM was 74%.

With `CCCC[C@H](CN(O)C=O)C(=O)N[C@H](C(=O)OC1CCCCC1)C(C)(C)C` [Example 15, 2S-{2R-[(Formyl-hydroxy-amino)-methyl]-hexanoylamino}-3,3-dimethyl Butyric Acid Cyclohexyl Ester] as the molecule, how does the activity at 6 µM read?
The activity at 6 µM was 75%.

Which activity at 6 µM does the source give for `CCCC[C@H](CN(O)C=O)C(=O)N[C@H](C(=O)OCCOC)C(C)(C)C` [Example 16, 2S-{2R-[(Formyl-hydroxy-amino)-methyl]-hexanoylamino}-3,3-dimethyl Butyric Acid 2-methoxy-ethyl Ester] here?
The activity at 6 µM was 89%.

With `CCCC[C@H](CN(O)C=O)C(=O)N[C@H](C(=O)OCC1CCCC1)C(C)(C)C` [Example 18, 2S-{2R-[(Formyl-hydroxy-amino)-methyl]-hexanoylamino}-3,3-dimethyl Butyric Acid Cyclopentylmethyl Ester] as the molecule, how does the activity at 6 µM read?
Its activity at 6 µM is 60%.

With `CCCC[C@H](CN(O)C=O)C(=O)N[C@@H](Cc1ccccc1)C(=O)OC(C)C` [Example 19, 2S-{2R-[(Formyl-hydroxy-amino)methyl]-hexanoylamino}-3-phenyl-propionic Acid Iso-Propyl Ester] as the molecule, how does the activity at 6 µM read?
The activity at 6 µM was 0%.

With `CCCC[C@H](CN(O)C=O)C(=O)N[C@H](C(=O)OC)c1ccccc1` [Example 20, S-{2R-[(Formyl-hydroxy-amino)-methyl]-hexanoylamino}-2-phenyl Acetic Acid Methyl Ester] as the molecule, how does the activity at 6 µM read?
The activity at 6 µM was 53%.

For `CCCC[C@H](CN(O)C=O)C(=O)N[C@H](C(=O)OC(C)(C)C)c1ccccc1` [Example 21, S-{2R-[(Formyl-hydroxy-amino)-methyl]-hexanoylamino}-2-phenyl Acetic Acid Tert-Butyl Ester], which activity at 6 µM is on record?
The activity at 6 µM was 90%.

With `CCCC[C@H](CN(O)C=O)C(=O)N[C@@H](Cc1ccccc1)C(=O)OC(C)(C)C` [Example 22, 2S-{2R-[(Formyl-hydroxy-amino)-methyl]-hexanoylamino}-3-phenyl-propionic Acid Tert-Butyl Ester] as the molecule, how does the activity at 6 µM read?
The activity at 6 µM was 53%.

With `CCC[C@@H]([C@@H](CC(C)C)C(=O)N[C@@H](COC(C)(C)C)C(=O)OC1CCCC1)N(O)C=O` [Example 23, 3-tert-Butoxy-2S-[3S-(formyl-hydroxy-amino)-2R-isobutyl-hexanoylamino]-propionic Acid Cyclopentyl Ester] as the molecule, how does the activity at 6 µM read?
Its activity at 6 µM is 5%.

For `CCC[C@@H]([C@@H](Cc1ccccc1)C(=O)N[C@@H](COC(C)(C)C)C(=O)OC1CCCC1)N(O)C=O` [Example 24, 2S-[2R-Benzyl-3S-(formyl-hydroxy-amino)-hexanoylamino]-3-tert-butoxypropionic Acid Cyclopentyl Ester], which activity at 6 µM is on record?
Its activity at 6 µM is 0%.

For `CCC[C@@H]([C@@H](CC(C)C)C(=O)N[C@H](C(=O)OCC)c1ccccc1)N(O)C=O` [Example 25, S-[3S-(Formyl-hydroxy-amino)-2R-isobutyl-hexanoylamino]-phenyl-acetic Acid Ethyl Ester], which activity at 6 µM is on record?
The activity at 6 µM was 3%.

For `CCC[C@@H]([C@@H](CC(C)C)C(=O)N[C@H](C(=O)OCCOC)c1ccccc1)N(O)C=O` [Example 26, S-[3S-(Formyl-hydroxy-amino)-2R-isobutyl-hexanoylamino]-phenyl-acetic Acid Methoxyethyl Ester], which activity at 6 µM is on record?
Its activity at 6 µM is 10%.

With `CCC[C@@H]([C@@H](Cc1ccccc1)C(=O)N[C@@H](Cc1ccccc1)C(=O)OC1CCCC1)N(O)C=O` [Example 27, 2S-[2R-Benzyl-3S-(formyl-hydroxy-amino)hexanoylamino]-3-phenyl-propionic Acid Cyclopentyl Ester] as the molecule, how does the activity at 6 µM read?
Its activity at 6 µM is 0%.

With `CCC[C@@H]([C@@H](Cc1ccccc1)C(=O)N[C@H](C(=O)OC1CCCC1)c1ccccc1)N(O)C=O` [Example 28, S-[2R-Benzyl-3S-(formyl-hydroxy-amino)hexanoylamino]-phenyl-acetic Acid Cyclopentyl Ester] as the molecule, how does the activity at 6 µM read?
Its activity at 6 µM is 0%.

With `CCC[C@@H]([C@@H](Cc1ccccc1)C(=O)N[C@H](C(=O)OCCOC)c1ccccc1)N(O)C=O` [Example 29, S-[2R-Benzyl-3S-(formyl-hydroxy-amino)hexanoylamino]-phenyl-acetic Acid Methoxyethyl Ester] as the molecule, how does the activity at 6 µM read?
Its activity at 6 µM is 0%.

With `CCC[C@@H]([C@@H](CC(C)C)C(=O)N[C@H](C(=O)OCC1CCCC1)c1ccccc1)N(O)C=O` [Example 32, S-[3S-(Formyl-hydroxy-amino)-2R-isobutyl-hexanoylamino]-phenyl-acetic Acid Cyclopentylmethyl Ester] as the molecule, how does the activity at 6 µM read?
Its activity at 6 µM is 8%.

With `CCC[C@@H]([C@@H](CC(C)C)C(=O)N[C@H](C(=O)OC1CCCC1)c1ccccc1)N(O)C=O` [Example 33, S-[3S-(Formyl-hydroxy-amino)-2R-isobutyl-hexanoylamino]-phenyl-acetic Acid Cyclopentyl Ester] as the molecule, how does the activity at 6 µM read?
The activity at 6 µM was 0%.

Same assay, conditions: U937 cells; 6 μM; comparison compound

For `O=c1[nH]cc(F)c(=O)[nH]1` [5-fluorouracil, reference compound], which “activity in the U937 assay, % of that observed with the vehicle alone” value is on record?
The value was 50%.

Same assay, conditions: U937 cells; test compound 6 μM; 72 hours in culture, 3 hours pulse; control DMSO 0.08%; n=6

With `CCCC[C@H](CN(O)C=O)C(=O)N[C@H](C(=O)OC1CCCC1)C(C)C` [Example 6, 2S-{2R-[(Formyl-hydroxy-amino)-methyl]-hexanoylamino}-3-methyl Butyric Acid Cyclo-Pentyl Ester] as the molecule, how does the “% of Control methyl-^3H Thymidine Incorporation” value read?
The value was 0%.

Same assay, conditions: U937 cells; test compound 6 μM; 72 hours in culture, 3 hours pulse; control DMSO 0.08%; n=6; 6 µM

Which “% of Control methyl-^3H Thymidine Incorporation” value does the source give for `O=CN(O)CC(Cc1ccccc1)C(=O)N[C@@H](Cc1ccccc1)C(=O)OC1CCCC1` (single isomer, unassigned) [Example 1, diastereomer A, 2S-[2-benzyl-3-(formyl-hydroxy-amino)propionylamino]-3-phenyl-propionic acid cyclopentyl ester] here?
Its value is 0%.

With `O=CN(O)CC(Cc1ccccc1)C(=O)N[C@@H](Cc1ccccc1)C(=O)OC1CCCC1` (single isomer, unassigned) [Example 1, diastereomer B, 2S-[2-benzyl-3-(formyl-hydroxy-amino)propionylamino]-3-phenyl-propionic acid cyclopentyl ester] as the molecule, how does the “% of Control methyl-^3H Thymidine Incorporation” value read?
Its value is 73%.

For `CC(C)C[C@@H](C(=O)N[C@@H](Cc1ccccc1)C(=O)OC1CCCC1)C(C)N(O)C=O` (single isomer, unassigned) [Example 2, diastereomer B], which “% of Control methyl-^3H Thymidine Incorporation” value is on record?
Its value is 17%.

Test system: not given
Assay: not given
Conditions: not given

With `CCCC[C@H](CN(O)C=O)C(=O)N[C@H](C(=O)OC)C(C)(C)C` [Example 5, 2S-{2R-[(Formyl-hydroxy-amino)-methyl]-hexanoylamino}-3,3-dimethyl Butyric Acid Methyl Ester] as the molecule, how does the melting point read?
Its melting point is 63.5 to 64.5 °C.

For `CCCC[C@H](CN(O)C=O)C(=O)N[C@H](C(=O)OCC)c1ccccc1` [Example 10, 2S-{2R-[(Formyl-hydroxy-amino)-methyl]-hexanoylamino}-2-phenyl Acetic Acid Ethyl Ester], which melting point is on record?
Its melting point is 134 to 136 °C.

With `CCCC[C@H](CN(O)C=O)C(=O)N[C@H](C(=O)OC(C)C)c1ccccc1` [Example 11, S-{2R-[(Formyl-hydroxy-amino)-methyl]-hexanoylamino}-2-phenyl Acetic Acid Iso-Propyl Ester] as the molecule, how does the melting point read?
The melting point was 142 to 145 °C.

Which melting point does the source give for `CCCC[C@H](CN(O)C=O)C(=O)N[C@H](C(=O)OCC)C(C)(C)C` [Example 12, 2S-{2R-[(Formyl-hydroxy-amino)-methyl]-hexanoylamino}-3,3-dimethyl Butyric Acid Ethyl Ester] here?
The melting point was 85 to 87 °C.

With `CCCC[C@H](CN(O)C=O)C(=O)N[C@H](C(=O)OC1CCCC1)c1ccccc1` [Example 13, S-{2R-[(Formyl-hydroxy-amino)-methyl]-hexanoylamino}-2-phenyl Acetic Acid Cyclo-Pentyl Ester] as the molecule, how does the melting point read?
The melting point was 119 to 120 °C.

With `CCCC[C@H](CN(O)C=O)C(=O)N[C@@H](Cc1ccccc1)C(=O)OC(C)(C)C` [Example 22, 2S-{2R-[(Formyl-hydroxy-amino)-methyl]-hexanoylamino}-3-phenyl-propionic Acid Tert-Butyl Ester] as the molecule, how does the melting point read?
Its melting point is 95 to 98 °C.
